# Experimental data reported in EP3727588B1, “ACTIVATOR PEPTIDES OF THE ENZYME ADAM 10 AND RELATED USES IN THE TREATMENT OF ALZHEIMER'S DISEASE” (UNIVERSITA' DEGLI STUDI DI MILANO, priority 2017, dated 2019).
# Peptide text beside a SMILES is read from it.
# Assays:
# ADAM10/AP2 complex [1] = target: T1, ADAM10/AP2 complex (Rattus norvegicus, UniProt P62944); assay: co-immunoprecipitation of ADAM10 with AP2 subunits in primary cultures of hippocampal neurons; assay type: cell-based
# T1 construct: endogenous in cells; host or cells: primary hippocampal neurons of rat embryos, DIV14
# Experimental: The primary cultures were prepared from hippocampi of rat embryos as described in [20]. The cultures were grown in media containing Neurobasal (Life Technologies), B27 2% (Life Technologies), GlutaMAX 1% (Life Technologies) and Penicillin/Streptomycin 1% (Pen/Strep; Life Technologies), a 37 °C with 95% humidity and 5% CO2 for 14 days. The cells were treated by diluting the peptides in the complete growth medium, at a final concentration of 1 µM. The treatment was performed for 30 minutes at 37°C, then the neurons were lysed.
# (§1) For the co-immunoprecipitation experiments, aliquots of 40-100 µg of lysate were incubated at 4°C in RIA 1X buffer (NaCl 200 mM, EDTA 10 mM, Na2HPO4 10 mM, Nonidet P-40, 0.5% and 0.1% SDS) in a final volume of 150 µl with 1-2 µg of antibody. The following day the protein complex A/G (Santa Cruz Biotechnology) was added, conjugated with agarose marbles, and the incubation was continued for 2 hours. After three washes with RIA buffer the samples were loaded onto SDS-PAGE and analysed through Western Blot.
# (§2) The quantization of the Western Blot analyses was performed through an image analysis program (ImageLab -BioRad). The levels of proteins were expressed as optical density (OD) related to the different measurements and were normalized on respective tubulin levels.
# After 30 minutes, the cells were processed and the cell lysate was used for performing the co-IP analyses.
# [2] = blood-brain barrier crossing, anti-TAT immunohistochemistry on coronal brain sections; assay type: in vivo; conditions: C57BL/6 mice, intraperitoneal injection 3 nmoles/g, 24 hours
# Experimental: For the immunohistochemistry analyses, mice treated with the peptide were anaesthetized deeply and subjected to transcardial perfusion with 4% paraformaldehyde (prepared in PBS, pH 7.2-7.4), through the use of a peristaltic pump. The fixing liquid was inserted into the blood circulation through the left ventricle and after 10 minutes the brain was isolated. The sample was then post-fixed for 1 hour and 30 minutes at 4°C, then washed with PBS 1X and placed o/n in a 30% sucrose solution. The following day the sample was washed again with PBS 1X cut with the vibratome obtaining coronal sections of 50µm. Then the sections were stained through free-floating immunofluorescence technique. The fluorescence images were acquired using the Zeiss Confocal LSM510 Meta system with 63x objective at a resolution of 1024x1024 pixels. […]
# The coronal sections were incubated with a specific antibody for the identification of the MAP2 neurons, and an antibody able to recognize the TAT sequence of HIV-1 present in the CPPs. As shown by the arrows in Figure 6, the presence of a specific signal of the anti-TAT antibody can be identified, which can only be detected in the coronal sections of brain of animals treated with CPPs. […] In the brain of animals only treated with saline solution (Figure 6, panel A), such signal cannot be detected.
# ADAM10/AP2 complex [3] = target: T1, ADAM10/AP2 complex; assay: co-immunoprecipitation of ADAM10 with AP2 (α-adaptin) in acute hippocampal slices; assay type: cell-based; conditions: 10 µM, 30 minutes
# Experimental: (§3) The acute hippocampal slices were obtained from rat brain. After carefully removing the meninges, the hippocampus was isolated and dissected using the McIlwain tissue chopper. The hippocampal slices were then transferred into supports containing Krebs buffer, in the presence of a constant flow of 95% O2 and 5% CO2 5% (v/v). The acute slices were kept for 45 min at ambient temperature before proceeding with treatment with the peptide.
# (§4) For the treatments of the acute hippocampal slices, all the peptides were diluted in Krebs buffer at a concentration of 10µM. The treatments were performed for 30 minutes and subsequently the sample was immediately frozen.
# as §1, §2
# (§5) The samples were then processed, and the total homogenate was used to evaluate the interaction levels between ADAM10 and the complex AP2. The co-immunoprecipitation experiment (co-IP), performed using an anti-ADAM10 antibody, made it possible to verify that two of the three peptides (PEP2 (SEQ ID NO:2) and PEP3 (SEQ ID NO:1)) were able to interfere with the interaction between ADAM10 and α-adaptin, one of the subunits that constitutes the complex AP2 (Figure 1A).
# [4] = tested on: T2, ADAM10/AP2 complex (Rattus norvegicus); assay: as above; assay type: cell-based; conditions: 10 µM, 30 min
# T2 construct: endogenous in cells; host or cells: primary hippocampal neurons of rat embryos, DIV14
# Experimental: as §3, §4, §1, §2, §5
# [5] = primary hippocampal neurons DIV 14, 1 µM, 30 minutes
# T1 sequence (P18484 whole entry): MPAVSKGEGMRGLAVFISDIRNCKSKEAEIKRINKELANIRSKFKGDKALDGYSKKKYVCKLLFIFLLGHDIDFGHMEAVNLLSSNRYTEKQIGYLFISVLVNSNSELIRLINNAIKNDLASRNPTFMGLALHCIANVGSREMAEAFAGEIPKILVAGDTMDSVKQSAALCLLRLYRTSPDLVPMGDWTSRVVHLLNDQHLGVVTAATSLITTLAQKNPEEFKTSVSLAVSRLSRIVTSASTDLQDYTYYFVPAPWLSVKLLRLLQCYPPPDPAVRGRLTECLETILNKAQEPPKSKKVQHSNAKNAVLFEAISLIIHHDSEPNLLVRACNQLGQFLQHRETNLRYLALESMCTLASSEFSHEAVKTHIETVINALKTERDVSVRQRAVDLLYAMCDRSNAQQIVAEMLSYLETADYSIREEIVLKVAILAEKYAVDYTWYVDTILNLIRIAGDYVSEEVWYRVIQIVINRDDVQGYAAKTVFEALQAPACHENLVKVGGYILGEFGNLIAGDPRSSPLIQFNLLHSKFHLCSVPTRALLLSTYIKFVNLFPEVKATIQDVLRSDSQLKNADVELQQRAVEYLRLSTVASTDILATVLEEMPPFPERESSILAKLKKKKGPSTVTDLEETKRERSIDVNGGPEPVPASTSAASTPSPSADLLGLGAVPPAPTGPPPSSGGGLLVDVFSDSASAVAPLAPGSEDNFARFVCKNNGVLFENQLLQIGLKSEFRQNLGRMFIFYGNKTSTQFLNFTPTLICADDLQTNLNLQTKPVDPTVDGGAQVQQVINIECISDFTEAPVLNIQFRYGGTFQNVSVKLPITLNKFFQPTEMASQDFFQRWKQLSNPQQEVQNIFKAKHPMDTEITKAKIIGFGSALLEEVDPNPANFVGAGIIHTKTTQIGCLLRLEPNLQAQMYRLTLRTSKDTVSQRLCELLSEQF
# T1 sequence (P62744 whole entry, further chain): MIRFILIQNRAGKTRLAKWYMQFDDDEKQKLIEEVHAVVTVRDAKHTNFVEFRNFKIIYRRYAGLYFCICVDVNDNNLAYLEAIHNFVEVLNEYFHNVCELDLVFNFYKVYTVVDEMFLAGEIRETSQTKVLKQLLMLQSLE
# T1 sequence (P84092 whole entry, further chain): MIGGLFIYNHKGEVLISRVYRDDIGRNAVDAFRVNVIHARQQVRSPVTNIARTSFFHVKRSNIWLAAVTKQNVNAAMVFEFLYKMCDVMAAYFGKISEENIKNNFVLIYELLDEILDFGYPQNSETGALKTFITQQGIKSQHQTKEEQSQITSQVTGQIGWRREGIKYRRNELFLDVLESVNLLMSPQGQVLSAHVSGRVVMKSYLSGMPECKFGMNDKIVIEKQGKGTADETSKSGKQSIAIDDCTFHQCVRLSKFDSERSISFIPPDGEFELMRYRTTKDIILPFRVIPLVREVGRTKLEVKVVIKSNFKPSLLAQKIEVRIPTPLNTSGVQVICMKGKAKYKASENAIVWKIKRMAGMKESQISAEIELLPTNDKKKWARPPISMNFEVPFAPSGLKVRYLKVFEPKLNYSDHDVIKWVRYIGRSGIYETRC
# T1 sequence (P62944 whole entry): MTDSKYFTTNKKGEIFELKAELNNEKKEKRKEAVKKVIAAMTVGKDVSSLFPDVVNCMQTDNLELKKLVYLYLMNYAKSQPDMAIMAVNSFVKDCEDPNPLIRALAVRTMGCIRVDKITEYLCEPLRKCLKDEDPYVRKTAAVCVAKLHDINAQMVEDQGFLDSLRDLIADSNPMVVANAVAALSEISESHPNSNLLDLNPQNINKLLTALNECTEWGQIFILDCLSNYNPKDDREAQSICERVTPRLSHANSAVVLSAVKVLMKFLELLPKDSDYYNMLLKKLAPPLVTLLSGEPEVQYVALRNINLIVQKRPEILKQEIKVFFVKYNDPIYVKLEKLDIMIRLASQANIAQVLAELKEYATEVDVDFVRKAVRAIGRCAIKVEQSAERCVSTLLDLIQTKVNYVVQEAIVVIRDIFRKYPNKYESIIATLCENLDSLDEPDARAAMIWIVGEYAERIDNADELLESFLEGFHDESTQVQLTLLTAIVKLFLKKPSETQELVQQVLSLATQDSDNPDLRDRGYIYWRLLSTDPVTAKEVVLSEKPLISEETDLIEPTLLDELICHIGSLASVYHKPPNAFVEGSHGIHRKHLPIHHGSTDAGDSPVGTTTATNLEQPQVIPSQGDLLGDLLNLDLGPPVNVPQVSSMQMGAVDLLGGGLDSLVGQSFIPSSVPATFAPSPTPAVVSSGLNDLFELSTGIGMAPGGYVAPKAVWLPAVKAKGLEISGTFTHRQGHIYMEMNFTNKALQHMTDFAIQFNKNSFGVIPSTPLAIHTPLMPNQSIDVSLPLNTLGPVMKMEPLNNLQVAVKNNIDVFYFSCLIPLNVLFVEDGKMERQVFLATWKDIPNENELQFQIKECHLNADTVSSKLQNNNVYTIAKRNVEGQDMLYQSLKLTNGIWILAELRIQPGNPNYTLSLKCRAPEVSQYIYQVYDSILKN
# T2 sequence (P18484 whole entry): as the sequence (P18484 whole entry) above
# T2 sequence (P62744 whole entry, further chain): as the sequence (P62744 whole entry, further chain) above
# T2 sequence (P84092 whole entry, further chain): as the sequence (P84092 whole entry, further chain) above
# T2 sequence (P62944 whole entry, further chain): as the sequence (P62944 whole entry) above
smiles,measurement,setting,value
CC(C)C[C@H](NC(=O)[C@H](CCCNC(=N)N)NC(=O)[C@@H]1CCCN1C(=O)[C@H](CCCNC(=N)N)NC(=O)[C@H](CCC(N)=O)NC(=O)[C@H](CCCNC(=N)N)NC(=O)[C@@H]1CCCN1C(=O)[C@@H]1CCCN1C(=O)[C@H](CC(C)C)NC(=O)CNC(=O)[C@H](CO)NC(=O)CNC(=O)CNC(=O)[C@H](CCCNC(=N)N)NC(=O)[C@H](CCCNC(=N)N)NC(=O)[C@H](CCCNC(=N)N)NC(=O)[C@H](CCC(N)=O)NC(=O)[C@H](CCCNC(=N)N)NC(=O)[C@H](CCCNC(=N)N)NC(=O)[C@H](CCCCN)NC(=O)[C@H](CCCCN)NC(=O)[C@H](CCCNC(=N)N)NC(=O)CNC(=O)[C@@H](N)Cc1ccc(O)cc1)C(=O)O [PEP2] (H-YGRKKRRQRRRGGSGLPPRQRPRL-OH),"PEP/inPEP OD, ADAM10/AP2 complex, µ2","ADAM10/AP2 complex [1]; primary cultures of neurons, 1µM, 30 min",52.01 ± 3.77%
same,"reduction in the levels of interaction between ADAM10 and the complex AP2, subunit µ2",ADAM10/AP2 complex [1]; [5],48%
same,"reduction in the levels of interaction between ADAM10 and the complex AP2, subunit α-adaptin",ADAM10/AP2 complex [1]; [5],66%
same,capacity to cross the blood-brain barrier (BBB),[2],can cross the BBB and penetrate into the neuron cells
same,reduction of the interaction between ADAM10 and α-adaptin,ADAM10/AP2 complex [3],58.4%
same,"PEP/inPEP ratio of optical density (OD), ADAM10/AP2 complex (α-adaptin)",[4],41.60 ± 23.86%
